According to ChEMBL document CHEMBL1201861, “Genomics of Drug Sensitity in Cancer screening data, Wellcome Trust Sanger Institute”:

Experiments:
Experiment in all cases: cells
Details in all cases: Homo sapiens
[1] = tested on: KS-1; type: functional, cell-based;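 note: growth inhibition of KS-1 cells, read out with a cell viability assay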
Description: SANGER: Inhibition of human KS-1 cell growth in a cell viability assay.

[2] = tested on: EW-18; type: functional, cell-based;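 note: growth inhibition of EW-18 cells, read out by a cell viability assay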
Description: SANGER: Inhibition of human EW-18 cell growth in a cell viability assay.

[3] = tested on: NCI-H23; type: functional, cell-based;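 note: cell viability assay measuring growth inhibition of NCI-H23 cells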
Description: SANGER: Inhibition of human NCI-H23 cell growth in a cell viability assay.

[4] = tested on: SW872; type: functional, cell-based;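 note: growth inhibition of SW872 cells, read out by a viability assay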
Description: SANGER: Inhibition of human SW872 cell growth in a cell viability assay.

[5] = tested on: BV-173; type: functional, cell-based
Description: SANGER: Inhibition of human BV-173 cell growth in a cell viability assay.

[6] = tested on: GOTO; type: functional, cell-based;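 note: growth inhibition of GOTO cells, read out by a cell viability assay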
Description: SANGER: Inhibition of human GOTO cell growth in a cell viability assay.

[7] = tested on: LB831-BLC; type: functional, cell-based;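 note: growth inhibition of LB831-BLC cells, read out with a cell viability assay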
Description: SANGER: Inhibition of human LB831-BLC cell growth in a cell viability assay.

[8] = tested on: P30-OHK; type: functional, cell-based;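 note: growth inhibition of the P30-OHK cell line, read out with a cell viability assay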
Description: SANGER: Inhibition of human P30-OHK cell growth in a cell viability assay.

[9] = tested on: SCC-15; type: functional, cell-based;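 note: growth inhibition of SCC-15 cells, read out with a cell viability assay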
Description: SANGER: Inhibition of human SCC-15 cell growth in a cell viability assay.

[10] = tested on: RPMI-8226; type: functional, cell-based
Description: SANGER: Inhibition of human RPMI-8226 cell growth in a cell viability assay.

[11] = tested on: KU812 cell line; type: functional, cell-based;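 note: growth inhibition of KU812 cells, read out with a cell viability assay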
Description: SANGER: Inhibition of human KU812 cell growth in a cell viability assay.

[12] = tested on: EKVX; type: functional, cell-based;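 note: growth inhibition of human EKVX cells, read out with a cell viability assay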
Description: SANGER: Inhibition of human EKVX cell growth in a cell viability assay.

[13] = tested on: ES7; type: functional, cell-based;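 note: growth inhibition of cultured human ES7 cells, read out as cell viability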
Description: SANGER: Inhibition of human ES7 cell growth in a cell viability assay.

[14] = tested on: KLE; type: functional, cell-based;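 note: growth inhibition of human KLE cells, read out with a cell viability assay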
Description: SANGER: Inhibition of human KLE cell growth in a cell viability assay.

[15] = tested on: DJM-1; type: functional, cell-based;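 note: growth inhibition of human DJM-1 cells, read out by a cell viability assay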
Description: SANGER: Inhibition of human DJM-1 cell growth in a cell viability assay.

[16] = tested on: COLO-684; type: functional, cell-based
Description: SANGER: Inhibition of human COLO-684 cell growth in a cell viability assay.

[17] = tested on: IST-MEL1; type: functional, cell-based;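 note: growth inhibition of the cell line, read out with a cell viability assay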
Description: SANGER: Inhibition of human IST-MEL1 cell growth in a cell viability assay.

[18] = tested on: LB771-HNC; type: functional, cell-based;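 note: growth inhibition of LB771-HNC human cells, read out with a cell viability assay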
Description: SANGER: Inhibition of human LB771-HNC cell growth in a cell viability assay.

[19] = tested on: NCI-H1838; type: functional, cell-based;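 note: growth inhibition of NCI-H1838 cells, determined with a cell viability readout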
Description: SANGER: Inhibition of human NCI-H1838 cell growth in a cell viability assay.

[20] = tested on: NOS-1; type: functional, cell-based;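 note: growth inhibition of the human NOS-1 cell line, read out with a cell viability assay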
Description: SANGER: Inhibition of human NOS-1 cell growth in a cell viability assay.

[21] = tested on: JVM-3; type: functional, cell-based;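 note: growth inhibition of human JVM-3 cells, read out with a cell viability assay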
Description: SANGER: Inhibition of human JVM-3 cell growth in a cell viability assay.

[22] = tested on: HAL-01; type: functional, cell-based;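 note: growth inhibition of human HAL-01 cells, read out with a cell viability assay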
Description: SANGER: Inhibition of human HAL-01 cell growth in a cell viability assay.

[23] = tested on: COLO-829; type: functional, cell-based
Description: SANGER: Inhibition of human COLO-829 cell growth in a cell viability assay.

[24] = tested on: RCC10RGB; type: functional, cell-based;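 note: growth inhibition of human RCC10RGB cells, read out by a cell viability assay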
Description: SANGER: Inhibition of human RCC10RGB cell growth in a cell viability assay.

[25] = tested on: MZ2-MEL; type: functional, cell-based;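 note: growth inhibition of MZ2-MEL cells read out with a cell viability assay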
Description: SANGER: Inhibition of human MZ2-MEL cell growth in a cell viability assay.

[26] = tested on: NCI-H209; type: functional, cell-based;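 note: growth inhibition of human NCI-H209 cells, measured by a cell viability assay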
Description: SANGER: Inhibition of human NCI-H209 cell growth in a cell viability assay.

[27] = tested on: NB69; type: functional, cell-based;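 note: growth inhibition of NB69 cells, determined by a cell viability assay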
Description: SANGER: Inhibition of human NB69 cell growth in a cell viability assay.

[28] = tested on: SK-MEL-2; type: functional, cell-based;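 note: growth inhibition of human SK-MEL-2 cells measured with a cell viability assay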
Description: SANGER: Inhibition of human SK-MEL-2 cell growth in a cell viability assay.

[29] = tested on: PSN1; type: functional, cell-based;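 note: suppression of growth of human PSN1 cells, read out by a cell viability assay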
Description: SANGER: Inhibition of human PSN1 cell growth in a cell viability assay.

[30] = tested on: KG-1; type: functional, cell-based;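 note: growth inhibition of KG-1 cells, read out by a cell viability assay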
Description: SANGER: Inhibition of human KG-1 cell growth in a cell viability assay.

[31] = tested on: HCE-4; type: functional, cell-based;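 note: cell viability assay measuring inhibition of growth in the human HCE-4 cell line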
Description: SANGER: Inhibition of human HCE-4 cell growth in a cell viability assay.

[32] = tested on: LS-411N; type: functional, cell-based
[33] = tested on: KM-H2; type: functional, cell-based;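 note: growth inhibition of KM-H2 cells, read out by a cell viability assay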
Description: SANGER: Inhibition of human KM-H2 cell growth in a cell viability assay.

[34] = tested on: KP-N-YS; type: functional, cell-based;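 note: cell viability assay measuring inhibition of cell line growth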
Description: SANGER: Inhibition of human KP-N-YS cell growth in a cell viability assay.

[35] = tested on: LXF-289 cell line; type: functional, cell-based
Description: SANGER: Inhibition of human LXF-289 cell growth in a cell viability assay.

[36] = tested on: IST-SL1; type: functional, cell-based;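 note: growth inhibition of human IST-SL1 cells, read out with a cell viability assay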
Description: SANGER: Inhibition of human IST-SL1 cell growth in a cell viability assay.

[37] = tested on: D-263MG; type: functional, cell-based
Description: SANGER: Inhibition of human D-263MG cell growth in a cell viability assay.

[38] = tested on: MOLT-16; type: functional, cell-based;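 note: growth inhibition of human MOLT-16 cells, read out with a cell viability assay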
Description: SANGER: Inhibition of human MOLT-16 cell growth in a cell viability assay.

[39] = tested on: TE-5; type: functional, cell-based;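 note: inhibition of cell growth, read out by a cell viability assay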
Description: SANGER: Inhibition of human TE-5 cell growth in a cell viability assay.

[40] = tested on: 8-MG-BA; type: functional, cell-based;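 note: growth inhibition of 8-MG-BA cells, read out with a cell viability assay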
Description: SANGER: Inhibition of human 8-MG-BA cell growth in a cell viability assay.

[41] = tested on: SCH; type: functional, cell-based;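 note: growth inhibition of human SCH cells, read out in a cell viability assay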
Description: SANGER: Inhibition of human SCH cell growth in a cell viability assay.

[42] = tested on: Ramos-2G6-4C10; type: functional, cell-based;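 note: growth inhibition of the cell line, measured by a cell viability read-out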
Description: SANGER: Inhibition of human Ramos-2G6-4C10 cell growth in a cell viability assay.

[43] = tested on: NCI-H1155; type: functional, cell-based;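 note: cell growth inhibition measured by a viability assay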
Description: SANGER: Inhibition of human NCI-H1155 cell growth in a cell viability assay.

[44] = tested on: SH-4; type: functional, cell-based;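 note: growth inhibition of SH-4 cells, read out with a cell viability assay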
Description: SANGER: Inhibition of human SH-4 cell growth in a cell viability assay.

[45] = tested on: TE-1; type: functional, cell-based;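 note: growth inhibition of the human TE-1 cell line, read out with a cell viability assay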
Description: SANGER: Inhibition of human TE-1 cell growth in a cell viability assay.

[46] = tested on: ACN; type: functional, cell-based;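 note: growth inhibition of the human ACN cell line, read out via cell viability testing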
Description: SANGER: Inhibition of human ACN cell growth in a cell viability assay.

[47] = tested on: MMAC-SF; type: functional, cell-based;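 note: growth inhibition of human MMAC-SF cells, read out with a cell viability assay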
Description: SANGER: Inhibition of human MMAC-SF cell growth in a cell viability assay.

[48] = tested on: NH-12; type: functional, cell-based;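 note: growth inhibition of NH-12 cells, read out with a cell viability assay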
Description: SANGER: Inhibition of human NH-12 cell growth in a cell viability assay.

[49] = tested on: BE-13; type: functional, cell-based;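 note: growth inhibition of human BE-13 cells, measured with a cell viability assay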
Description: SANGER: Inhibition of human BE-13 cell growth in a cell viability assay.

[50] = tested on: K562; type: functional, cell-based
Description: SANGER: Inhibition of human K-562 cell growth in a cell viability assay.

[51] = tested on: SW982; type: functional, cell-based;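 note: growth inhibition of SW982 cells, read out with a cell viability assay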
Description: SANGER: Inhibition of human SW982 cell growth in a cell viability assay.

[52] = tested on: MHH-NB-11; type: functional, cell-based;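 note: growth inhibition of human MHH-NB-11 cells, read out by a cell viability assay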
Description: SANGER: Inhibition of human MHH-NB-11 cell growth in a cell viability assay.

[53] = tested on: NCI-H510A; type: functional, cell-based;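 note: growth inhibition of NCI-H510A cells, read out with a cell viability assay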
Description: SANGER: Inhibition of human NCI-H510A cell growth in a cell viability assay.

[54] = tested on: U-87 MG; type: functional, cell-based, U-87MG ATCC;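 note: growth inhibition of the cells measured with a viability assay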
Description: SANGER: Inhibition of human U-87-MG cell growth in a cell viability assay.

[55] = tested on: MS-1; type: functional, cell-based;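 note: growth inhibition of MS-1 cells, read out by cell viability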
Description: SANGER: Inhibition of human MS-1 cell growth in a cell viability assay.

[56] = tested on: NCI-H526; type: functional, cell-based;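 note: growth inhibition of the human NCI-H526 cell line, measured by a cell viability assay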
Description: SANGER: Inhibition of human NCI-H526 cell growth in a cell viability assay.

[57] = tested on: BB65-RCC; type: functional, cell-based;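 note: growth inhibition of the cell line, measured with a cell viability assay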
Description: SANGER: Inhibition of human BB65-RCC cell growth in a cell viability assay.

[58] = tested on: SK-NEP-1; type: functional, cell-based;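 note: growth inhibition of human SK-NEP-1 cells, read out by a cell viability assay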
Description: SANGER: Inhibition of human SK-NEP-1 cell growth in a cell viability assay.

[59] = tested on: NCI-H1092; type: functional, cell-based
Description: SANGER: Inhibition of human NCI-H1092 cell growth in a cell viability assay.

[60] = tested on: SW684; type: functional, cell-based
Description: SANGER: Inhibition of human SW684 cell growth in a cell viability assay.

[61] = tested on: NKM-1; type: functional, cell-based
Description: SANGER: Inhibition of human NKM-1 cell growth in a cell viability assay.

[62] = tested on: GCIY; type: functional, cell-based
Description: SANGER: Inhibition of human GCIY cell growth in a cell viability assay.

[63] = tested on: HT; type: functional, cell-based
Description: SANGER: Inhibition of human HT cell growth in a cell viability assay.

[64] = tested on: NB6; type: functional, cell-based
Description: SANGER: Inhibition of human NB6 cell growth in a cell viability assay.

[65] = tested on: NCI-H2126; type: functional, cell-based
Description: SANGER: Inhibition of human NCI-H2126 cell growth in a cell viability assay.

[66] = tested on: 697; type: functional, cell-based
Description: SANGER: Inhibition of human 697 cell growth in a cell viability assay.

Compound: C/C(O)=C(\C#N)C(=O)Nc1cc(Br)ccc1Br
- IC50 [1]: > 16 µM
- IC50 [2]: > 16 µM
- IC50 [3]: > 16 µM
- IC50 [4]: > 16 µM
- IC50 [5]: > 16 µM
- IC50 [6]: > 16 µM
- IC50 [7]: > 16 µM
- IC50 [8]: > 16 µM
- IC50 [9]: > 16 µM
- IC50 [10]: > 16 µM
- IC50 [11]: > 16 µM
- IC50 [12]: > 16 µM
- IC50 [13]: > 16 µM
- IC50 [14]: > 16 µM
- IC50 [15]: > 16 µM
- IC50 [16]: > 16 µM
- IC50 [17]: > 16 µM
- IC50 [18]: > 16 µM
- IC50 [19]: > 16 µM
- IC50 [20]: > 16 µM
- IC50 [21]: > 16 µM
- IC50 [22]: > 16 µM
- IC50 [23]: > 16 µM
- IC50 [24]: > 16 µM
- IC50 [25]: > 16 µM
- IC50 [26]: > 16 µM
- IC50 [27]: > 16 µM
- IC50 [28]: > 16 µM
- IC50 [29]: > 16 µM
- IC50 [30]: > 16 µM
- IC50 [31]: > 16 µM
- IC50 [32]: > 16 µM
- IC50 [33]: > 16 µM
- IC50 [34]: > 16 µM
- IC50 [35]: > 16 µM
- IC50 [36]: > 16 µM
- IC50 [37]: > 16 µM
- IC50 [38]: > 16 µM
- IC50 [39]: > 16 µM
- IC50 [40]: > 16 µM
- IC50 [41]: > 16 µM
- IC50 [42]: > 16 µM
- IC50 [43]: > 16 µM
- IC50 [44]: > 16 µM
- IC50 [45]: > 16 µM
- IC50 [46]: > 16 µM
- IC50 [47]: > 16 µM
- IC50 [48]: > 16 µM
- IC50 [49]: > 16 µM
- IC50 [50]: > 16 µM
- IC50 [51]: > 16 µM
- IC50 [52]: > 16 µM
- IC50 [53]: > 16 µM
- IC50 [54]: > 16 µM
- IC50 [55]: > 16 µM
- IC50 [56]: > 16 µM
- IC50 [57]: > 16 µM
- IC50 [58]: > 16 µM
- IC50 [59]: > 16 µM
- IC50 [60]: > 16 µM
- IC50 [61]: > 16 µM
- IC50 [62]: > 16 µM
- IC50 [63]: > 16 µM
- IC50 [64]: > 16 µM
- IC50 [65]: > 16 µM
- IC50 [66]: > 16 µM

Compound: O=c1[nH]c2ccccc2n1C1CCN(Cc2ccc(-c3nc4cc5[nH]cnc5cc4nc3-c3ccccc3)cc2)CC1
- IC50 [1]: > 2.56 µM
- IC50 [2]: > 2.56 µM
- IC50 [3]: > 2.56 µM
- IC50 [4]: > 2.56 µM
- IC50 [5]: > 2.56 µM
- IC50 [6]: > 2.56 µM
- IC50 [7]: > 2.56 µM
- IC50 [8]: > 2.56 µM
- IC50 [9]: > 2.56 µM
- IC50 [10]: > 2.56 µM
- IC50 [11]: 1.73 µM
- IC50 [12]: > 2.56 µM
- IC50 [13]: 1.35 µM
- IC50 [14]: > 2.56 µM
- IC50 [15]: > 2.56 µM
- IC50 [16]: > 2.56 µM
- IC50 [17]: > 2.56 µM
- IC50 [18]: > 2.56 µM
- IC50 [19]: > 2.56 µM
- IC50 [20]: 1.37 µM
- IC50 [21]: > 2.56 µM
- IC50 [22]: > 2.56 µM
- IC50 [23]: > 2.56 µM
- IC50 [24]: > 2.56 µM
- IC50 [25]: > 2.56 µM
- IC50 [26]: > 2.56 µM
- IC50 [27]: > 2.56 µM
- IC50 [28]: > 2.56 µM
- IC50 [29]: > 2.56 µM
- IC50 [30]: > 2.56 µM
- IC50 [31]: > 2.56 µM
- IC50 [32]: 1.25 µM
- IC50 [33]: > 2.56 µM
- IC50 [34]: > 2.56 µM
- IC50 [35]: 1.76 µM
- IC50 [36]: > 2.56 µM
- IC50 [37]: > 2.56 µM
- IC50 [38]: > 2.56 µM
- IC50 [39]: > 2.56 µM
- IC50 [40]: > 2.56 µM
- IC50 [41]: > 2.56 µM
- IC50 [42]: > 2.56 µM
- IC50 [43]: > 2.56 µM
- IC50 [44]: > 2.56 µM
- IC50 [45]: > 2.56 µM
- IC50 [46]: > 2.56 µM
- IC50 [47]: > 2.56 µM
- IC50 [48]: 0.609 µM
- IC50 [49]: > 2.56 µM
- IC50 [50]: > 2.56 µM
- IC50 [51]: > 2.56 µM
- IC50 [52]: > 2.56 µM
- IC50 [53]: > 2.56 µM
- IC50 [54]: > 2.56 µM
- IC50 [55]: > 2.56 µM
- IC50 [56]: > 2.56 µM
- IC50 [57]: > 2.56 µM
- IC50 [58]: > 2.56 µM
- IC50 [59]: > 2.56 µM
- IC50 [60]: > 2.56 µM
- IC50 [61]: > 2.56 µM
- IC50 [62]: > 2.56 µM
- IC50 [63]: > 2.56 µM
- IC50 [64]: > 2.56 µM
- IC50 [65]: > 2.56 µM
- IC50 [66]: > 2.56 µM
